# Measured values from patent US12421210B2, “Fused bicyclic heterocycles as therapeutic agents” (NEW YORK UNIVERSITY, priority 2018, dated 2025).
# Target: human NAMPT enzyme (His-hNAMPT) (Homo sapiens (Human), UniProt P43490)
# Test: NAMPT enzymatic inhibition assay (fluorescence, NADH product)
# Assay type: biochemical
# Conditions: [HDB]; read-out: NAMPT IC50 (μM) [HDB]
# human NAMPT enzyme (His-hNAMPT), sequence (P43490 whole entry): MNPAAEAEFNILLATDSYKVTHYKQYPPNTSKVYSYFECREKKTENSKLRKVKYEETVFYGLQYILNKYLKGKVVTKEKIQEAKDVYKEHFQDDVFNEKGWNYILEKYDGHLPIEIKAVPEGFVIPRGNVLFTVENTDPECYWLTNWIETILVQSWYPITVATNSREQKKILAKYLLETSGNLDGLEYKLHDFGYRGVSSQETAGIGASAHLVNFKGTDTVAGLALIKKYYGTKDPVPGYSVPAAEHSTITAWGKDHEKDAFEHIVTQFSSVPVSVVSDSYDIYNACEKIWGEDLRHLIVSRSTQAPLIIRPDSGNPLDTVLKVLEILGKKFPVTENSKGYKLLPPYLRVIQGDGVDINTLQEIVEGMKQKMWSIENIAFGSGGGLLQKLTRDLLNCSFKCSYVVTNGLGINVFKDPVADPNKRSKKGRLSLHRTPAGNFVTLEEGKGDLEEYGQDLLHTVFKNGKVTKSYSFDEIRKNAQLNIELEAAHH
row,Compound,IC50 [µM]
1,"O=C(/C=C/c1cccnc1)NCC[C@@H]1[C@H]2CN(Cc3ncccn3)C[C@@H]12 [Example 294, (E)-3-(Pyridin-3-yl)-N-(2-((1R,5S,6s)-3-(pyrimidin-2-ylmethyl)-3-azabicyclo[3.1.0]hexan-6-yl)ethyl)acrylamide]",0.01 to 0.49
2,"O=C(/C=C/c1cccnc1)NCC[C@@H]1[C@H]2CN(CCc3ccccc3)C[C@@H]12 [Example 295, (E)-N-(2-((1R,5S,6s)-3-phenethyl-3-azabicyclo[3.1.0]hexan-6-yl)ethyl)-3-(pyridin-3-yl)acrylamide]",0.01 to 0.49
3,"O=C(/C=C/c1cccnc1)NCC[C@@H]1[C@H]2CN(C(c3ccccc3)C(F)(F)F)C[C@@H]12 (stereo partly drawn) [Example 296, (E)-3-(pyridin-3-yl)-N-(2-((1R,5S,6s)-3-(2,2,2-trifluoro-1-phenylethyl)-3-azabicyclo[3.1.0]hexan-6-yl)ethyl)acrylamide]",< 0.01
4,"COc1ncc(F)c(N2C[C@@H]3[C@@H](CCNC(=O)/C=C/c4cccnc4)[C@@H]3C2)n1 [Example 297, (E)-N-(2-((1R,5S,6s)-3-(5-fluoro-2-methoxypyrimidin-4-yl)-3-azabicyclo[3.1.0]hexan-6-yl)ethyl)-3-(pyridin-3-yl)acrylamide]",< 0.01
5,"O=C(/C=C/c1cccnc1)NCC[C@@H]1[C@H]2CN(Cc3cncnc3)C[C@@H]12 [Example 298, (E)-3-(pyridin-3-yl)-N-(2-((1R,5S,6s)-3-(pyrimidin-5-ylmethyl)-3-azabicyclo[3.1.0]hexan-6-yl)ethyl)acrylamide]",< 0.01
6,"O=C(/C=C/c1cccnc1)NCC[C@@H]1[C@H]2CN(c3ccnc(OC(F)F)c3)C[C@@H]12 [Example 299, (E)-N-(2-((1R,5S,6s)-3-(2-(difluoromethoxy)pyridin-4-yl)-3-azabicyclo[3.1.0]hexan-6-yl)ethyl)-3-(pyridin-3-yl)acrylamide]",< 0.01
7,"O=C(/C=C/c1cccnc1)NCC[C@@H]1[C@H]2CN(Cc3ccccc3Cl)C[C@@H]12 [Example 300, (E)-N-(2-((1R,5S,6s)-3-(2-chlorobenzyl)-3-azabicyclo[3.1.0]hexan-6-yl)ethyl)-3-(pyridin-3-yl)acrylamide]",0.01 to 0.49
8,"O=C(/C=C/c1cccnc1)NCC[C@@H]1[C@H]2CN(Cc3cccc(Cl)c3)C[C@@H]12 [Example 301, (E)-N-(2-((1R,5S,6s)-3-(3-chlorobenzyl)-3-azabicyclo[3.1.0]hexan-6-yl)ethyl)-3-(pyridin-3-yl)acrylamide]",< 0.01
9,"O=C(/C=C/c1cccnc1)NCC[C@@H]1[C@H]2CN(Cc3ccc(Cl)cc3)C[C@@H]12 [Example 302, (E)-N-(2-((1R,5S,6s)-3-(4-chlorobenzyl)-3-azabicyclo[3.1.0]hexan-6-yl)ethyl)-3-(pyridin-3-yl)acrylamide]",0.01 to 0.49
10,"CC(C)Oc1ncc(F)c(N2C[C@@H]3[C@@H](CCNC(=O)/C=C/c4cccnc4)[C@@H]3C2)n1 [Example 303, (E)-N-(2-((1R,5S,6s)-3-(5-fluoro-2-isopropoxypyrimidin-4-yl)-3-azabicyclo[3.1.0]hexan-6-yl)ethyl)-3-(pyridin-3-yl)acrylamide]",0.01 to 0.49
11,"CN(C)c1ncc(F)c(N2C[C@@H]3[C@@H](CCNC(=O)/C=C/c4cccnc4)[C@@H]3C2)n1 [Example 304, (E)-N-(2-((1R,5S,6s)-3-(2-(dimethylamino)-5-fluoropyrimidin-4-yl)-3-azabicyclo[3.1.0]hexan-6-yl)ethyl)-3-(pyridin-3-yl)acrylamide]",< 0.01
12,"O=C(/C=C/c1cccnc1)NCC[C@@H]1[C@H]2CN(c3nc(OC4CCOCC4)ncc3F)C[C@@H]12 [Example 305, (E)-N-(2-((1R,5S,6s)-3-(5-fluoro-2-((tetrahydro-2H-pyran-4-yl)oxy)pyrimidin-4-yl)-3-azabicyclo[3.1.0]hexan-6-yl)ethyl)-3-(pyridin-3-yl)acrylamide]",< 0.01
13,"O=C(/C=C/c1cccnc1)NCC[C@@H]1[C@H]2CN(c3nc(Oc4ccccc4)ncc3F)C[C@@H]12 [Example 306, (E)-N-(2-((1R,5S,6s)-3-(5-fluoro-2-phenoxypyrimidin-4-yl)-3-azabicyclo[3.1.0]hexan-6-yl)ethyl)-3-(pyridin-3-yl)acrylamide]",0.01 to 0.49
